Here are results for four compounds from US20260265220A1, “GALPHA12 INHIBITORS AND METHODS USING SAME” (RUTGERS, THE STATE UNIVERSITY OF NEW JERSEY, priority 2022, published 2026).

One assay addresses T1, Gα12 (Homo sapiens, UniProt Q03113).
T1 sequence (Q03113 1-381): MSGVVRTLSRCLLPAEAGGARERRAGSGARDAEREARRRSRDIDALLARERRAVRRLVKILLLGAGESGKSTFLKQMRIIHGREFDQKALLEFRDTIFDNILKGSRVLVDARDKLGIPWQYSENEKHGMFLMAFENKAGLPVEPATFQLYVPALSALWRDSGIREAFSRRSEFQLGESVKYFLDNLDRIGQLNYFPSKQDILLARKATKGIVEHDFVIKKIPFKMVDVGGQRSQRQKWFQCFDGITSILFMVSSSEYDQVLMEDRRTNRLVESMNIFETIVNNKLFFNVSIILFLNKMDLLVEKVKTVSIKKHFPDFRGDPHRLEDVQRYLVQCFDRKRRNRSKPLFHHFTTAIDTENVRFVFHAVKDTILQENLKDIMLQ
As to the kind of experiment: Gα12 luciferase reporter assay in hTERT-SRE immortalized airway smooth muscle cells, carbachol stimulated. Type of assay: cell-based. Conditions: carbachol (CCh) stimulated, dose response. An excerpt:
FIGS. 1A-1C show an experimental approach to the identification of Gα12 modulators using hTERT-SRE human telomerase reverse transcriptase immortalized airway smooth muscle cells. FIG. 1A: provides a schematic representation of Gα12-activated luciferase reporter. […] FIG. 1C: provides a detailed schematic showing the downstream effects of Gα12/13 activation and/or inhibition, wherein serum response element (SRE) may be detected by a luciferase assay, and pAKT and pMLC may be detected by Western blotting. A Gα12 luciferase reporter assay was used to evaluate the potential of analogues of compound 1 as bronchodilators (FIGS. 2A-2C), wherein the assay utilized hTERT-SRE telomerase reverse transcriptase immortalized airway smooth muscle cells. In certain embodiments, the Gα12 pathway is activated with carbachol (CCh), resulting in downstream transcription of a […]/luciferase fusion protein (FIG. 1A), and consequently, a fluorescence signal (FIG. 1B). In certain embodiments, detection of a decrease in observed fluorescent signal indicates inhibition of Gα12. Further, activation of the Gα12 pathway results in elevated levels of phosphorylated AKT (pAKT) and MLC (pMLC) (FIG. 1C). In certain embodiments, detection of a decrease in pAKT and/or pMLC indicates inhibition of Gα12.
(In general: In a reporter assay the amount or activity of a reporter protein is the signal.)

The subject of assay [1] is MLC phosphorylation (pMLC). As to the kind of experiment: Immunoblot analysis of myosin light chain phosphorylation (pMLC) in airway smooth muscle cells. The format is cell-based, human. Particulars: for agonist specificity of the effect on pMLC activation: carbachol versus histamine; for potency and efficacy on carbachol-induced pMLC activation: relative to the parent compound 1 (BDF). Here is the method: (§1) Compounds 1-3 were evaluated for inhibition of AKT and MLC phosphorylation. As described elsewhere herein, phosphorylation of AKT and/or MLC can occur with activation of the Gα12 pathway. Accordingly, in certain embodiments, detection of a decrease in pAKT and/or pMLC indicates inhibition of Gα12.
(§2) The immunoblot analysis of phosphorylation of myosin light chain (pMLC) was used as a surrogate for ASM contraction. In parallel, phosphorylation of AKT was analogously assessed. AKT is a downstream substrate for phosphoinositide 3-kinase (PI3K) activity, can modulate the activation of the Gα12 pathway in primary human airway smooth muscle cells. These cells are the pivotal cells regulating bronchomotor tone in asthma and chronic obstructive pulmonary disease (COPD) which is emphysema or chronic bronchitis.
(§3) The analogues described herein were further assessed for potency and efficacy in inhibiting AKT and pMLC phosphorylation induced by contractile agonists, carbachol, or histamine. These contractile agonists are pivotal in causing airway smooth muscle contraction and airway obstruction in asthma and COPD.
(In general: In western blotting, separated proteins are transferred to a membrane and probed.)

Assay [2] relates to AKT phosphorylation (pAKT). The experiment in a line: Immunoblot analysis of AKT phosphorylation (pAKT) in airway smooth muscle cells. The format is cell-based, human. Here is the method:
as §1, §2, §3

Entries after “also recorded” stand apart in the source; their conditions may differ.

In the case of `CC(C)(NC(=O)Cc1ccccc1F)C(=O)N1CCOCC(Cc2cccc3ccncc23)C1` (stereo not shown) [BDH, 2-(2-fluorophenyl)-N-(1-(6-(isoquinolin-8-ylmethyl)-1,4-oxazepan-4-yl)-2-methyl-1-oxopropan-2-yl)acetamide, reference compound], on Gα12, the “modulation of Gα12 luciferase reporter signal (agonist/antagonist)” value (from here on “modulation … (agonist/antagonist)”) is “dose-dependent activation”.

`Cc1ccc(Cc2ccc(C3CN(C(=O)c4cnc(C)cn4)CCO3)nc2)cc1` (stereo not shown) [Compound 2, (2-(5-(4-methylbenzyl)pyridin-2-yl)morpholino)(5-methylpyrazin-2-yl)methanone]: in assay [1], the “agonist specificity of the effect on pMLC activation” value was “specific for carbachol rather than histamine”; the “potency and efficacy on carbachol-induced pMLC activation” value is “improved potency and efficacy”. Also, the “modulation … (agonist/antagonist)” value on Gα12 is listed as “Gα12 antagonists”.

`CCN1CCC(CC(=O)N2CCOC(c3ccc(-c4cccc(OC)c4)cn3)C2)CC1` (stereo not shown) [Compound 3, 2-(1-ethylpiperidin-4-yl)-1-(2-(5-(3-methoxyphenyl)pyridin-2-yl)morpholino)ethan-1-one]: the pAKT result in assay [2] (compound at 10 μM (FIGS. 4A-4B)) and in assay [2] (compound at 100 μM (FIGS. 4A-4B)) was “decrease; also recorded: significantly decreased” in each case. Also, in assay [1], the “agonist specificity of the effect on pMLC activation” value is reported as “specific for carbachol rather than histamine”. Besides, the pMLC entry in assay [1] (compound at 10 μM (FIGS. 4C-4D)) and in assay [1] (compound at 100 μM (FIGS. 4C-4D)) was “decrease; also recorded: significantly decreased” each time. The “potency and efficacy on carbachol-induced pMLC activation” value in assay [1] is “improved potency and efficacy”. In addition, the “modulation … (agonist/antagonist)” value at Gα12 was “Gα12 antagonists”.

Regarding `FC(F)(F)c1cccc(Cc2ccc(C3CN(Cc4cccnc4)CCO3)nc2)c1` (stereo not shown) [Compound 5, 4-(pyridin-3-ylmethyl)-2-(5-(3-(trifluoromethyl)benzyl)pyridin-2-yl)morpholine], in assay [2] (contractile agonists carbachol or histamine), the “inhibition of AKT phosphorylation (pAKT) by agonists” value is “inactive”. For the same compound, the “agonist-induced pMLC activation” value in assay [1] (contractile agonists carbachol or histamine, FIGS. 6A-6B) is “inactive”.
